Data set [1] deals with M-HeLa. The data set is described as follows: Antiproliferative activity against human M-HeLa cells assessed as reduction in cell viability after 24 hrs by DAPI/propidium iodide staining based assay. The format is functional.
The next data set deals with MCF7. The data set is described as follows: Antiproliferative activity against human MCF7cells assessed as reduction in cell viability after 24 hrs by DAPI/propidium iodide staining based assay. The format is functional. Conditions: MCF7, 24 h.
The nature of data set [2]: Cytotoxicity against human Chang liver cells assessed as reduction in cell viability after 24 hrs by DAPI/propidium iodide staining based assay.
The subject of data set [3] is M-HeLa. The data set is described as follows: Induction of apoptosis in human M-HeLa cells assessed as necrotic cells at 25 uM after 24 hrs by annexin V-FITC/PIstaining based flow cytometric analysis (reference value: […]). In kind it is functional. A general note: Flow cytometry measures light scatter and fluorescence of single cells or particles in a stream.
The nature of data set [4]: Hemolytic activity in human Erythrocytes at 100 +/- 7.8 uM relative to control. The format is ADME, cell-based, Erythrocyte. Conditions: read-out: Activity.
Data set [5] has as its system M-HeLa. The data set can be described thus: Induction of apoptosis in human M-HeLa cells assessed as early apoptotic cells at 10 uM after 24 hrs by annexin V-FITC/PIstaining based flow cytometric analysis (reference value: 1.5%). In kind it is functional.
Data set [6] concerns M-HeLa. The data set can be described thus: Induction of mitochondrial membrane potential loss in human M-HeLa cells assessed as collapsed mitochondrial membrane potential at 10 uM after 24 hrs by Jc-10 dye based flow cytometric analysis (reference value: 22.17%). In kind it is functional.
The subject of data set [7] is M-HeLa. The data set can be described thus: Induction of apoptosis in human M-HeLa cells assessed as late apoptotic cells at 10 uM after 24 hrs by annexin V-FITC/PIstaining based flow cytometric analysis (reference value: 0.62%). The format is functional.
Data set [8] has as its system M-HeLa. The data set can be described thus: Induction of apoptosis in human M-HeLa cells assessed as late apoptotic cells at 25 uM after 24 hrs by annexin V-FITC/PIstaining based flow cytometric analysis (reference value: 0.62%). The format is functional.
Data set [9] has as its system M-HeLa. The data set can be described thus: Induction of mitochondrial membrane potential loss in human M-HeLa cells assessed as intact mitochondrial membrane potential at 25 uM after 24 hrs by Jc-10 dye based flow cytometric analysis (reference value: 77.48%). The format is functional.
Data set [10] has as its system M-HeLa. The data set is described as follows: Induction of apoptosis in human M-HeLa cells assessed as viable cells at 10 uM after 24 hrs by annexin V-FITC/PIstaining based flow cytometric analysis (reference value: 93.33%). In kind it is functional. To be noted: read-out: Activity.
Data set [11] is described as follows: Hemolytic activity in human Erythrocytes at 10 +/- 0.8 uM relative to control. The format is ADME, cell-based, Erythrocyte. To be noted: read-out: Activity.
Data set [12] has as its system M-HeLa. The data set is described as follows: Induction of apoptosis in human M-HeLa cells assessed as early apoptotic cells at 25 uM after 24 hrs by annexin V-FITC/PIstaining based flow cytometric analysis (reference value: 1.5%). In kind it is functional.
Data set [13] deals with M-HeLa. The data set is described as follows: Induction of mitochondrial membrane potential loss in human M-HeLa cells assessed as intact mitochondrial membrane potential at 10 uM after 24 hrs by Jc-10 dye based flow cytometric analysis (reference value: 77.48%). In kind it is functional.
The nature of data set [14]: Hemolytic activity in human Erythrocytes at 50 +/- 0.8 uM relative to control. The format is ADME, cell-based, Erythrocyte. To be noted: read-out: Activity.
In data set [15] the test system is M-HeLa. The data set can be described thus: Induction of apoptosis in human M-HeLa cells assessed as necrotic cells at 10 uM after 24 hrs by annexin V-FITC/PIstaining based flow cytometric analysis (reference value: […]). In kind it is functional.
The test system of data set [16] is M-HeLa. The data set can be described thus: Induction of mitochondrial membrane potential loss in human M-HeLa cells assessed as collapsed mitochondrial membrane potential at 25 uM after 24 hrs by Jc-10 dye based flow cytometric analysis (reference value: 22.17%). The format is functional.
Data set [17] relates to M-HeLa. The data set is described as follows: Induction of apoptosis in human M-HeLa cells assessed as viable cells at 25 uM after 24 hrs by annexin V-FITC/PIstaining based flow cytometric analysis (reference value: 93.33%). The format is functional. Conditions: read-out: Activity.

What is called IC50 is the concentration that gives 50% inhibition. Regarding `C[C@@]12CC[C@@H]3[C@@](CC[C@H]4[C@@]3(C)CCC[C@@]4(C)C(=O)O[C@@H]3O[C@H](CO)[C@@H](O)[C@H](O)[C@H]3O)(CC1=O)C2`, the IC50 in the data set with M-HeLa [1] is 32 µM; in the data set on MCF7, over 100 µM; in [2] it was over 100 µM.
As to `C[C@@]12CC[C@@H]3[C@@](CC[C@H]4[C@@]3(C)CCC[C@@]4(C)C(=O)O[C@@H]3O[C@H](CO)[C@H](O)[C@H](O)[C@H]3O)(CC1=O)C2`, the IC50 stood at 52 µM in the data set with M-HeLa [1], 29 µM with MCF7 and 58 µM in [2].
The like results for `CC(=O)N[C@H]1[C@H](OC(=O)CCCCCCCCCOC(=O)[C@]2(C)CCC[C@@]3(C)[C@@H]4CC[C@@]5(C)C[C@]4(CC[C@@H]32)CC5=O)O[C@H](COC(C)=O)[C@@H](OC(C)=O)[C@@H]1OC(C)=O` were, in that order, over 100 µM, 64.9 µM and over 100 µM.
In the case of `CC(=O)OC[C@H]1O[C@@H](OC(=O)CCCCCOC(=O)[C@]2(C)CCC[C@@]3(C)[C@@H]4CC[C@@]5(C)C[C@]4(CC[C@@H]32)CC5=O)[C@H](OC(C)=O)[C@@H](OC(C)=O)[C@H]1OC(C)=O`, the Activity was found to be 8.9% in the data set with M-HeLa [3]; 34.78% with M-HeLa [5]; 44.17% in the data set with M-HeLa [6]; 7.61% in the data set on M-HeLa [7]; 13.98% in the data set with M-HeLa [8]; 11.53% with M-HeLa [9]. For the same molecule, the Activity in the data set with M-HeLa [12] amounted to 39.77%; in the data set with M-HeLa [13], 55.78%; in the data set on M-HeLa [15], 5.49%; with M-HeLa [16], 88.38%. The hemolysis at 100 uM in data set [4] was determined as 0%. Also, the IC50 in the data set on M-HeLa [1] was 10 µM; in the data set with MCF7 it was 32.1 µM; in data set [2] it was over 100 µM. Besides, the viability at 10 µM in the data set on M-HeLa [10] was determined as 52.1%. For the same molecule, the hemolysis at 10 uM in data set [11] came out at 0%. Also, in [14], the hemolysis at 50 uM stood at 0%. The viability at 25 µM with M-HeLa [17] came to 37.3%.
In the case of `CC(=O)OC[C@H]1O[C@H](OC(=O)[C@]2(C)CCC[C@@]3(C)[C@@H]4CC[C@@]5(C)C[C@]4(CC[C@@H]32)CC5=O)[C@@H](OC(C)=O)[C@@H](OC(C)=O)[C@@H]1OC(C)=O`, the Activity in the data set on M-HeLa [3] worked out at 0.28%; with M-HeLa [5] it was 3.02%; in the data set with M-HeLa [6], 70.85%; in the data set with M-HeLa [7], 7.25%; in the data set with M-HeLa [8], 12.97%; in the data set on M-HeLa [9], 7.74%. The Activity in the data set with M-HeLa [12] is given as 13.12%; in the data set with M-HeLa [13] it was 28.67%; in the data set on M-HeLa [15] it was 3.98%; with M-HeLa [16], 92.26%. Moreover, the hemolysis at 100 uM in data set [4] amounted to 0%. Also, the concentration for half-maximal inhibition (IC50) is 15.1 µM in the data set with M-HeLa [1], 29.3 µM in the data set on MCF7 and over 100 µM in data set [2]. In addition, in the data set on M-HeLa [10], the viability at 10 µM amounted to 85.8%. The hemolysis at 10 uM in [11] came out at 0%. Besides, the hemolysis at 50 uM in data set [14] came to 0%. Further, in the data set on M-HeLa [17], the viability at 25 µM turned out to be 73.7%.
`CC(=O)N[C@H]1[C@H](OC(=O)CCCCCOC(=O)[C@]2(C)CCC[C@@]3(C)[C@@H]4CC[C@@]5(C)C[C@]4(CC[C@@H]32)CC5=O)O[C@H](COC(C)=O)[C@@H](OC(C)=O)[C@@H]1OC(C)=O`: the IC50 with M-HeLa [1] is 46 µM; in the data set with MCF7, over 100 µM; in data set [2], 51.2 µM.
For the molecule `C[C@@]12CC[C@@H]3[C@@](CC[C@H]4[C@@]3(C)CCC[C@@]4(C)C(=O)O[C@H]3O[C@H](CO)[C@@H](O)[C@H](O)[C@@H]3O)(CC1=O)C2`, the IC50 (with M-HeLa [1]; in the data set on MCF7; in data set [2]) was over 100 µM throughout.
Regarding `CC(=O)OC[C@H]1O[C@@H](OC(=O)CCCCCCCCCOC(=O)[C@]2(C)CCC[C@@]3(C)[C@@H]4CC[C@@]5(C)C[C@]4(CC[C@@H]32)CC5=O)[C@H](OC(C)=O)[C@@H](OC(C)=O)[C@H]1OC(C)=O`, the figures for the IC50 (with M-HeLa [1]; with MCF7; in [2]) were 27 µM, 33.2 µM and over 100 µM, respectively.
The like results for `CC(=O)N[C@H]1[C@H](OC(=O)[C@]2(C)CCC[C@@]3(C)[C@@H]4CC[C@@]5(C)C[C@]4(CC[C@@H]32)CC5=O)O[C@H](CO)[C@@H](O)[C@@H]1O` were, in that order, over 100 µM, over 100 µM and over 100 µM.
In the same order, the values of `COC(=O)[C@H]1O[C@@H](OC(=O)[C@]2(C)CCC[C@@]3(C)[C@@H]4CC[C@@]5(C)C[C@]4(CC[C@@H]32)CC5=O)[C@H](OC(C)=O)[C@@H](OC(C)=O)[C@@H]1OC(C)=O` are 26 µM, 65 µM and over 100 µM.
The like results for `C[C@@]12CC[C@@H]3[C@@](CC[C@H]4[C@@]3(C)CCC[C@@]4(C)C(=O)O[C@@H]3O[C@H](C(=O)NN)[C@@H](O)[C@H](O)[C@H]3O)(C/C1=N\N)C2` were, in that order, over 100 µM, over 100 µM and over 100 µM.
Regarding `CC(=O)OC[C@H]1O[C@@H](OC(=O)[C@]2(C)CCC[C@@]3(C)[C@@H]4CC[C@@]5(C)C[C@]4(CC[C@@H]32)CC5=O)[C@H](OC(C)=O)[C@@H](OC(C)=O)[C@H]1OC(C)=O`, the IC50 (in the data set on M-HeLa [1]; in the data set with MCF7; in [2]) was over 100 µM in each case.
For `CC/C(=C(\c1ccccc1)c1ccc(OCCN(C)C)cc1)c1ccccc1` [TAMOXIFEN], the half-inhibitory concentration (IC50) in data set [2] was 46 µM.
Turning to `CC(=O)OC[C@H]1O[C@H](OC(=O)CCCCCOC(=O)[C@]2(C)CCC[C@@]3(C)[C@@H]4CC[C@@]5(C)C[C@]4(CC[C@@H]32)CC5=O)[C@@H](OC(C)=O)[C@@H](OC(C)=O)[C@@H]1OC(C)=O`, the Activity in the data set with M-HeLa [3] came out at 0.05%; in the data set with M-HeLa [5], 7.57%; with M-HeLa [6], 90.91%; in the data set with M-HeLa [7], 5.59%; in the data set on M-HeLa [8], 5.02%; in the data set on M-HeLa [9] it was 10.64%. Also, the Activity in the data set on M-HeLa [12] is recorded as 10.59%; with M-HeLa [13] it was 8.98%; with M-HeLa [15], 0.22%; with M-HeLa [16], 89.29%. In addition, in [4], the hemolysis at 100 uM was found to be 5.5%. Moreover, the IC50 was 11 µM in the data set with M-HeLa [1], 63.2 µM in the data set with MCF7 and over 100 µM in data set [2]. The viability at 10 µM with M-HeLa [10] worked out at 86.6%. In addition, in [11], the hemolysis at 10 uM came to 0%. The hemolysis at 50 uM in data set [14] stood at 1.7%. Also, the viability at 25 µM in the data set on M-HeLa [17] was found to be 84.3%.
For the molecule `CC(=O)OC[C@H]1O[C@H](OC(=O)CCCCCCCCCOC(=O)[C@]2(C)CCC[C@@]3(C)[C@@H]4CC[C@@]5(C)C[C@]4(CC[C@@H]32)CC5=O)[C@@H](OC(C)=O)[C@@H](OC(C)=O)[C@@H]1OC(C)=O`, the IC50 in the data set with M-HeLa [1] was 18 µM; with MCF7, 31 µM; in data set [2], over 100 µM.
On to `CC(=O)N[C@H]1[C@H](OC(=O)[C@]2(C)CCC[C@@]3(C)[C@@H]4CC[C@@]5(C)C[C@]4(CC[C@@H]32)CC5=O)O[C@H](COC(C)=O)[C@@H](OC(C)=O)[C@@H]1OC(C)=O`, for which the IC50 in the data set with M-HeLa [1] was found to be 18 µM; in the data set on MCF7, 36 µM; in [2] it was 86 µM.
In the same order, the values of `CC(=O)OC[C@H]1O[C@@H](OC(=O)[C@]2(C)CCC[C@@]3(C)[C@@H]4CC[C@@]5(C)C[C@]4(CC[C@@H]32)CC5=O)[C@H](OC(C)=O)[C@@H](OC(C)=O)[C@@H]1OC(C)=O` are over 100 µM, over 100 µM and over 100 µM.

Source of the values: ChEMBL document CHEMBL4373667, “Synthesis and anti-cancer activities of glycosides and glycoconjugates of diterpenoid isosteviol” (Medchemcomm, 2019).
